Reference: patent US11541055B2, “Inhibitors of human immunodeficiency virus replication” (ViiV Healthcare UK (No. 5) LIMITED, priority 2018, dated 2023)
pEC50: −log10 of the molar value.

Experiments:
[1] = Compound cytotoxicity, XTT-based colorimetric assay; type: cell-based; settings: human; uninfected MT2 cells, day 4, XTT
Protocol: Compound cytotoxicity and the corresponding CC50 values were determined using the same protocol as described in the antiviral assay except that uninfected cells were used. Cytotoxicity was assessed on day 4 in uninfected MT2 cells by using a XTT (2,3-bis[2-Methoxy-4-nitro-5-sulfophenyl]-2H-tetrazolium-5-carboxyanilide inner salt)-based colorimetric assay (Sigma-Aldrich, St Louis, Mo.).

[2] = system: recombinant NL4-3 virus (Renilla luciferase) in MT-2 cells; assay: HIV cell culture assay (antiviral activity, luciferase readout); type: cell-based; settings: Renilla, NL43
Protocol: HIV cell culture assay—MT-2 cells, 293T cells and the proviral DNA clone of NL4-3 virus were obtained from the NIH AIDS Research and Reference Reagent Program. MT-2 cells were propagated in RPMI 1640 media supplemented with 10% heat inactivated fetal bovine serum (FBS), […]. The 293T cells were propagated in DMEM media supplemented with 10% heat inactivated FBS, […] penicillin G and […] streptomycin. A recombinant NL40.3 proviral clone, in which a section of the nef gene was replaced with the Renilla luciferase gene, was used to make the reference virus used in these studies. The recombinant virus was prepared through transfection of the recombinant NL4-3 proviral clone into 293T cells using Transit-293 Transfection Reagent from Minis Bio LLC (Madison, Wis.). Supernatent was harvested after 2-3 days and the amount of virus present was titered in MT-2 cells using luciferase enzyme activity as a marker by measuring luciferase enzyme activity. Luciferase was quantitated using the EnduRen Live Cell Substrate from Promega (Madison, Wis.). Antiviral activities of compounds toward the recombinant virus were quantified by measuring luciferase activity in MT-2 cells infected for 4-5 days with the recombinant virus in the presence of serial dilutions of the compound.
The 50% effective concentration (EC50) was calculated by using the exponential form of the median effect equation where (Fa)=1/[1+(ED50/drug conc.)m] (Johnson V A, Byington R T. Infectivity Assay. In Techniques in HIV Research. ed. Aldovini A, Walker B D. 71-76. New York: Stockton Press. 1990). The 50% inhibitory concentration (EC50) was calculated by using the exponential form of the median effect equation where percent inhibition=1/[1+(EC50/drug concentration)m], where m is a parameter that reflects the slope of the concentration-response curve.

Row | SMILES | CC50 at 4 days [1] [pM] | pEC50 [2]
1 | CC(C)c1nccnc1-c1ccc2c(=O)n(-c3ccc(Cl)c4c(NS(C)(=O)=O)nn(C)c34)c([C@H](Cc3cc(F)cc(F)c3)NC(=O)Cn3nc(C(F)F)c4c3C(F)(F)[C@@H]3C[C@H]43)nc2c1 (atropisomer, axis not shown; (P)) [Example 16, N—((S)-1-((3P)-3-(4-chloro-1-methyl-3-(methylsulfonamido)-1H-indazol-7-yl)-7-(3-isopropylpyrazin-2-yl)-4-oxo-3,4-dihydroquinazolin-2-yl)-2-(3,5-difluorophenyl)ethyl)-2-((3bS,4aR)-3-(difluoromethyl)-5,5-difluoro-3b,4,4a,5-tetrahydro-1H-cyclopropa[3,4]cyclopenta[1,2-c]pyrazol-1-yl)acetamide] | > 500000 | 9.92
2 | CC(C)c1nccc(-c2ccc3c(=O)n(-c4ccc(Cl)c5c(NS(C)(=O)=O)nn(CC(F)(F)F)c45)c([C@H](Cc4cc(F)cc(F)c4)NC(=O)Cn4nc(C(F)F)c5c4C(F)(F)[C@@H]4C[C@H]54)nc3c2)n1 (atropisomer, axis not shown) [Example 108] | > 500000 | 9.92
3 | COc1nccnc1-c1ccc2c(=O)n(-c3ccc(Cl)c4c(NS(C)(=O)=O)nn(C)c34)c([C@H](Cc3cc(F)cc(F)c3)NC(=O)Cn3nc(C(F)F)c4c3C(F)(F)[C@@H]3C[C@H]43)nc2c1 (atropisomer, axis not shown; (P)) [Example 15, N—((S)-1-((3P)-3-(4-chloro-1-methyl-3-(methylsulfonamido)-1H-indazol-7-yl)-7-(3-methoxypyrazin-2-yl)-4-oxo-3,4-dihydroquinazolin-2-yl)-2-(3,5-difluorophenyl)ethyl)-2-((3bS,4aR)-3-(difluoromethyl)-5,5-difluoro-3b,4,4a,5-tetrahydro-1H-cyclopropa[3,4]cyclopenta[1,2-c]pyrazol-1-yl)acetamide] | > 500000 | 9.82
4 | Cc1ccc(F)c(-c2ccc3c(=O)n(-c4ccc(Cl)c5c(NS(C)(=O)=O)nn(CC(F)F)c45)c([C@H](Cc4cc(F)cc(F)c4)NC(=O)Cn4nc(C(F)F)c5c4C(F)(F)[C@@H]4C[C@H]54)nc3c2)n1 (atropisomer, axis not shown) [Example 122] | > 500000 | 10.10
5 | Cc1cc(C)nc(-c2ccc3c(=O)n(-c4ccc(Cl)c5c(NS(C)(=O)=O)nn(C)c45)c([C@H](Cc4cc(F)cc(F)c4)NC(=O)Cn4nc(C(F)F)c5c4C(F)(F)[C@@H]4C[C@H]54)nc3c2)c1 (atropisomer, axis not shown; (P)) [Example 1, N—((S)-1-((3P)-3-(4-chloro-1-methyl-3-(methylsulfonamido)-1H-indazol-7-yl)-7-(4,6-dimethylpyridin-2-yl)-4-oxo-3,4-dihydroquinazolin-2-yl)-2-(3,5-difluorophenyl)ethyl)-2-((3bS,4aR)-3-(difluoromethyl)-5,5-difluoro-3b,4,4a,5-tetrahydro-1H-cyclopropa[3,4]cyclopenta[1,2-c]pyrazol-1-yl)acetamide] | > 500000 | 9.82
6 | Cc1ncc(-c2ccc3c(=O)n(-c4ccc(Cl)c5c(NS(C)(=O)=O)nn(CC(F)F)c45)c([C@H](Cc4cc(F)cc(F)c4)NC(=O)Cn4nc(C(F)F)c5c4C(F)(F)[C@@H]4C[C@H]54)nc3c2)s1 (atropisomer, axis not shown) [Example 123, N-[(1S)-1-{3-[4-chloro-1-(2,2-difluoroethyl)-3-methanesulfonamido-1H-indazol-7-yl]-7-(2-methyl-1,3-thiazol-5-yl)-4-oxo-3,4-dihydroquinazolin-2-yl}-2-(3,5-difluorophenyl)ethyl]-2-[(2S,4R)-9-(difluoromethyl)-5,5-difluoro-7,8-diazatricyclo[4.3.0.0^2,^4]nona-1(6),8-dien-7-yl]acetamide] | > 500000 | 10.06
7 | Cc1nccc(-c2ccc3c(=O)n(-c4ccc(Cl)c5c(NS(C)(=O)=O)nn(CC(F)(F)F)c45)c([C@H](Cc4cc(F)cc(F)c4)NC(=O)Cn4nc(C(F)F)c5c4C(F)(F)[C@@H]4C[C@H]54)nc3c2)n1 (atropisomer, axis not shown) [Example 100, N-[(1S)-1-{3-[4-chloro-3-methanesulfonamido-1-(2,2,2-trifluoroethyl)-1H-indazol-7-yl]-7-(2-methylpyrimidin-4-yl)-4-oxo-3,4-dihydroquinazolin-2-yl}-2-(3,5-difluorophenyl)ethyl]-2-[(2S,4R)-9-(difluoromethyl)-5,5-difluoro-7,8-diazatricyclo[4.3.0.0^2,^4]nona-1(6),8-dien-7-yl]acetamide] | > 500000 | 10.38
8 | CS(=O)(=O)Nc1nn(CC(F)(F)F)c2c(-n3c([C@H](Cc4cc(F)cc(F)c4)NC(=O)Cn4nc(C(F)F)c5c4C(F)(F)[C@@H]4C[C@H]54)nc4cc(-c5nccc(C(F)(F)F)n5)ccc4c3=O)ccc(Cl)c12 (atropisomer, axis not shown) [Example 102] | > 500000 | 9.89
9 | Cn1nc(NS(C)(=O)=O)c2c(Cl)ccc(-n3c([C@H](Cc4cc(F)cc(F)c4)NC(=O)Cn4nc(C(F)F)c5c4C(F)(F)[C@@H]4C[C@H]54)nc4cc(-c5ccccc5S(=O)(=O)C(C)(C)C)ccc4c3=O)c21 [Example 32, N—((S)-1-(7-(2-(tert-butylsulfonyl)phenyl)-(3P)-3-(4-chloro-1-methyl-3-(methylsulfonamido)-1H-indazol-7-yl)-4-oxo-3,4-dihydroquinazolin-2-yl)-2-(3,5-difluorophenyl)ethyl)-2-((3bS,4aR)-3-(difluoromethyl)-5,5-difluoro-3b,4,4a,5-tetrahydro-1H-cyclopropa[3,4]cyclopenta[1,2-c]pyrazol-1-yl)acetamide] | > 500000 | 9.96
10 | Cn1nc(NS(C)(=O)=O)c2c(Cl)ccc(-n3c([C@H](Cc4cc(F)cc(F)c4)NC(=O)Cn4nc(C(F)F)c5c4C(F)(F)[C@@H]4C[C@H]54)nc4cc(-c5ccnc(C6CCC6)n5)ccc4c3=O)c21 (atropisomer, axis not shown; (P)) [Example 76, N—((S)-1-((3P)-3-(4-chloro-1-methyl-3-(methylsulfonamido)-1H-indazol-7-yl)-7-(2-cyclobutylpyrimidin-4-yl)-4-oxo-3,4-dihydroquinazolin-2-yl)-2-(3,5-difluorophenyl)ethyl)-2-((3bS,4aR)-3-(difluoromethyl)-5,5-difluoro-3b,4,4a,5-tetrahydro-1H-cyclopropa[3,4]cyclopenta[1,2-c]pyrazol-1-yl)acetamide] | > 500000 | 9.74
11 | Cc1nc(C)c(F)c(-c2ccc3c(=O)n(-c4ccc(Cl)c5c(NS(C)(=O)=O)nn(C)c45)c([C@H](Cc4cc(F)cc(F)c4)NC(=O)Cn4nc(C(F)F)c5c4C(F)(F)[C@@H]4C[C@H]54)nc3c2)n1 (atropisomer, axis not shown) [Example 119, N-[(1S)-1-[3-(4-chloro-3-methanesulfonamido-1-methyl-1H-indazol-7-yl)-7-(5-fluoro-2,6-dimethylpyrimidin-4-yl)-4-oxo-3,4-dihydroquinazolin-2-yl]-2-(3,5-difluorophenyl)ethyl]-2-[(2S,4R)-9-(difluoromethyl)-5,5-difluoro-7,8-diazatricyclo[4.3.0.0^2,^4]nona-1(6),8-dien-7-yl]acetamide] | > 500000 | 10.06
12 | Cn1nc(NS(C)(=O)=O)c2c(Cl)ccc(-n3c([C@H](Cc4cc(F)cc(F)c4)NC(=O)Cn4nc(C(F)F)c5c4C(F)(F)[C@@H]4C[C@H]54)nc4cc(-c5ccnc(C6CCCC6)n5)ccc4c3=O)c21 (atropisomer, axis not shown; (P)) [Example 73, N—((S)-1-((3P)-3-(4-chloro-1-methyl-3-(methylsulfonamido)-1H-indazol-7-yl)-7-(2-cyclopentylpyrimidin-4-yl)-4-oxo-3,4-dihydroquinazolin-2-yl)-2-(3,5-difluorophenyl)ethyl)-2-((3bS,4aR)-3-(difluoromethyl)-5,5-difluoro-3b,4,4a,5-tetrahydro-1H-cyclopropa[3,4]cyclopenta[1,2-c]pyrazol-1-yl)acetamide] | > 500000 | 9.02
13 | Cc1ncncc1-c1ccc2c(=O)n(-c3ccc(Cl)c4c(NS(C)(=O)=O)nn(C)c34)c([C@H](Cc3cc(F)cc(F)c3)NC(=O)Cn3nc(C(F)F)c4c3C(F)(F)[C@@H]3C[C@H]43)nc2c1 (atropisomer, axis not shown; (P)) [Example 42, N—((S)-1-((3P)-3-(4-chloro-1-methyl-3-(methylsulfonamido)-1H-indazol-7-yl)-7-(4-methylpyrimidin-5-yl)-4-oxo-3,4-dihydroquinazolin-2-yl)-2-(3,5-difluorophenyl)ethyl)-2-((3bS,4aR)-3-(difluoromethyl)-5,5-difluoro-3b,4,4a,5-tetrahydro-1H-cyclopropa[3,4]cyclopenta[1,2-c]pyrazol-1-yl)acetamide] | > 500000 | 10.13
